The target in experiment [1] is Dual specificity tyrosine-phosphorylation-regulated kinase 1A (Homo sapiens, UniProt Q13627).
The target of experiment [2] is Dual specificity tyrosine-phosphorylation-regulated kinase 1B (Homo sapiens, UniProt Q9Y463).
Experiment [3] deals with Dual specificity protein kinase CLK1 (Homo sapiens, UniProt P49759).
Experiment [4] deals with Dual specificity protein kinase CLK4 (Homo sapiens, UniProt Q9HAZ1).
For experiment [5], the target named is Glycogen synthase kinase-3 (Homo sapiens, UniProt P49840+P49841). The class given is protein assay.
The target of experiment [6] is T1, Dual specificity tyrosine-phosphorylation-regulated kinase 4 (Homo sapiens, UniProt Q9NR20).
T1 sequence (Q9NR20 whole entry): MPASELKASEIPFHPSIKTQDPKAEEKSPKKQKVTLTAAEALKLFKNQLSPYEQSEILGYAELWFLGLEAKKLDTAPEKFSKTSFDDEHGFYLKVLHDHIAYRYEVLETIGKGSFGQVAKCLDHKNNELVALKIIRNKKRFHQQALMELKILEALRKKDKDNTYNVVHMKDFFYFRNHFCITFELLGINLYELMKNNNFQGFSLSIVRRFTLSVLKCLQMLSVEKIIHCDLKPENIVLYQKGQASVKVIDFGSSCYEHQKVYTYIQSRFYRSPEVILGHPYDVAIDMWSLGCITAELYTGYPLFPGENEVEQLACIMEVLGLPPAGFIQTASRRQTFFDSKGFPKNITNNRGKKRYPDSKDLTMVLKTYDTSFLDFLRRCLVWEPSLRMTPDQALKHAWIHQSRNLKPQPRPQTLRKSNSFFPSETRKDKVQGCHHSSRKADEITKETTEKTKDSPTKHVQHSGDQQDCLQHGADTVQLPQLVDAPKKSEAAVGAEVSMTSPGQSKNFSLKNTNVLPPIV

The next experiment addresses Casein kinase I. Format: protein assay, Homo sapiens.
In experiment [7] the target is Dual specificity protein kinase CLK3 (Homo sapiens, UniProt P49761).
Experiment [8] concerns the target Cyclin-dependent kinase 5 (Homo sapiens, UniProt Q00535).
In experiment [9] the target is T2, Dual specificity tyrosine-phosphorylation-regulated kinase 2 (Homo sapiens, UniProt Q92630).
T2 sequence (Q92630 whole entry): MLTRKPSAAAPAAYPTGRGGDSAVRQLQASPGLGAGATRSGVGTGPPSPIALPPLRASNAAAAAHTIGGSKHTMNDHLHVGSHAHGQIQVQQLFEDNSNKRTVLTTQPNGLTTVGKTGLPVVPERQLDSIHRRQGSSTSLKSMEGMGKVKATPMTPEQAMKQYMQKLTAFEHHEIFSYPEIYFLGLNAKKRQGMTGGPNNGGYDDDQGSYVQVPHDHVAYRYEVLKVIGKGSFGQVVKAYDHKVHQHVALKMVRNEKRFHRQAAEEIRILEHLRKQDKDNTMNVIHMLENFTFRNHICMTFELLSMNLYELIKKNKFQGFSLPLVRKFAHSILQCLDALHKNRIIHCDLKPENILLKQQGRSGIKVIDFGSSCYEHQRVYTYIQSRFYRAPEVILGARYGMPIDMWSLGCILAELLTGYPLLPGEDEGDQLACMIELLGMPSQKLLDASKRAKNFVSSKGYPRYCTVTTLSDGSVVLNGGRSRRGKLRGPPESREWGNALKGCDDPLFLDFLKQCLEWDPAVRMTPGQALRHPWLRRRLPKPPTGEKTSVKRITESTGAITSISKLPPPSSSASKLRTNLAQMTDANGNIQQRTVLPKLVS

Several values for one entry are separate records, joined by “and”; a condition that tells them apart may be missing. Equal entries are not always repeated.

Chain of Dual specificity protein kinase CLK1 (P49759 whole entry): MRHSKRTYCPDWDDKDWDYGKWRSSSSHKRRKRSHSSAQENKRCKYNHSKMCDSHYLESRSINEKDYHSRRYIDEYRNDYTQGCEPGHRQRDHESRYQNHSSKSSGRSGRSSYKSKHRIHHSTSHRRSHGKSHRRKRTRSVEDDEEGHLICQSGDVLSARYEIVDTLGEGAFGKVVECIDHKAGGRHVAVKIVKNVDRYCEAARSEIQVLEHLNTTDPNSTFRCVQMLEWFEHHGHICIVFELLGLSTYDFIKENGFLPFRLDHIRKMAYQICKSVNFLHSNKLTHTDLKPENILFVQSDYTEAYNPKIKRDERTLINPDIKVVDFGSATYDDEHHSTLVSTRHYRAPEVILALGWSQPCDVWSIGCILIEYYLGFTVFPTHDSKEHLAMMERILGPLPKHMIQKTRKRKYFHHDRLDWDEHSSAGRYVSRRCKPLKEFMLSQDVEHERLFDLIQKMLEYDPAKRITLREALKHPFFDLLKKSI
Chain of Dual specificity protein kinase CLK4 (Q9HAZ1 whole entry): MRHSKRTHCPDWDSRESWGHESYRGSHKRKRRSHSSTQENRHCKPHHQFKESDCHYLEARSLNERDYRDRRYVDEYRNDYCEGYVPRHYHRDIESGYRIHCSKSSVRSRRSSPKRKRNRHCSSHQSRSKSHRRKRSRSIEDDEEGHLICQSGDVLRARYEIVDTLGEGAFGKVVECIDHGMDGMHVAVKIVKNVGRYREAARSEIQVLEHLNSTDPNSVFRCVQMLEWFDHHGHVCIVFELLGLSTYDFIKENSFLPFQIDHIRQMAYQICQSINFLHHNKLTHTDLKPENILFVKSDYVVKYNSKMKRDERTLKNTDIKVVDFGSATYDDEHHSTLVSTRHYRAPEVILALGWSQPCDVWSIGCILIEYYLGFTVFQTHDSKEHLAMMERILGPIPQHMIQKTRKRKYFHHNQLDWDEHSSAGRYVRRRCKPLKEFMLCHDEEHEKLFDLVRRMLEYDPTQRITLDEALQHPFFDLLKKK
Chain of Dual specificity tyrosine-phosphorylation-regulated kinase 1B (Q9Y463 whole entry): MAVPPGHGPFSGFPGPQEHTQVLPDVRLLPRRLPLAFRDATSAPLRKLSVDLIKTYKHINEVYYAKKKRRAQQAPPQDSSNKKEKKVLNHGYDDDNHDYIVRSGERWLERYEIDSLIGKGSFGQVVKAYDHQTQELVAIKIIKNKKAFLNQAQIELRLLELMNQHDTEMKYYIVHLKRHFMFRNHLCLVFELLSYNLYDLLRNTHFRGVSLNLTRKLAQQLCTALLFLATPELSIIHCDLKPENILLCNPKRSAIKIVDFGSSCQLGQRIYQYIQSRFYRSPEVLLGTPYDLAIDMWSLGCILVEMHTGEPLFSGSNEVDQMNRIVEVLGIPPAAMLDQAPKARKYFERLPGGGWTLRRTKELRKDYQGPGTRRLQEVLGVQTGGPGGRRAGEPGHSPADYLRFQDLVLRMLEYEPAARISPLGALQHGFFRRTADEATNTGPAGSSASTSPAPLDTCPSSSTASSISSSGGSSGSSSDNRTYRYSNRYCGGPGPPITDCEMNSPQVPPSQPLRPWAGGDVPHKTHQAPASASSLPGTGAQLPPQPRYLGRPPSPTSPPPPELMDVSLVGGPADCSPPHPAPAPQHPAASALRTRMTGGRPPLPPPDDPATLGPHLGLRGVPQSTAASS
Chain of Dual specificity protein kinase CLK3 (P49761 whole entry): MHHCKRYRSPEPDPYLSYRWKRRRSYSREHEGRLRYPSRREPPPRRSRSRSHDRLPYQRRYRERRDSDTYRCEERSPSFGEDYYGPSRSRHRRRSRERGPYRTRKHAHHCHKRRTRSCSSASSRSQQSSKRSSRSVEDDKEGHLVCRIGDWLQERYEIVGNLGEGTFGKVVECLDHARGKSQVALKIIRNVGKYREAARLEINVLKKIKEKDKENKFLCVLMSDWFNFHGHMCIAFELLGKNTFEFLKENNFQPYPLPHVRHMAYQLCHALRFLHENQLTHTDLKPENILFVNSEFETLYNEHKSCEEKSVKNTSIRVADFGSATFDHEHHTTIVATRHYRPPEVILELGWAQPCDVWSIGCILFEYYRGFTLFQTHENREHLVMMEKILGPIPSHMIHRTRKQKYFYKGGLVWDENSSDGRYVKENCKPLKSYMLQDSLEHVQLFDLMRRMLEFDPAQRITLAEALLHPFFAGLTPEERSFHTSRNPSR
Chain of Cyclin-dependent kinase 5 (Q00535 whole entry): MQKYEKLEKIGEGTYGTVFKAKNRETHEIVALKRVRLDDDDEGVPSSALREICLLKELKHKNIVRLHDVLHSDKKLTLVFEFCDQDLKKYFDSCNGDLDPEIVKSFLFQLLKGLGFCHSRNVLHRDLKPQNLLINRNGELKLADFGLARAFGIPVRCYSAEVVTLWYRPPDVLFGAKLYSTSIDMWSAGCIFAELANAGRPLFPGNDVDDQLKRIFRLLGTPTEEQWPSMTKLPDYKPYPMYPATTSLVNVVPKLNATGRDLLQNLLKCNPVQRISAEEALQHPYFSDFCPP

`COC[C@@H](CC(C)C)NC1=N/C(=C\c2ccc3c(c2)OCO3)C(=O)N1C`: the IC50 in experiment [1] amounted to 53.5 nM; in [2] it was 41.1 nM; in [3], 131 nM; in experiment [4] it was 77.1 nM.
Turning to `COC[C@@H](CC(C)C)NC1=N/C(=C/c2ccc3ncoc3c2)C(=O)N1C`, the values for the IC50 in experiment [3] and in experiment [4] were 18.8 nM and 16.3 nM, respectively.
In experiment [3], `COC[C@@H](CC(C)C)NC1=N/C(=C\c2ccc3ncn(C)c3c2)C(=O)N1C` came in with an IC50 of 37.6 nM.
`COC[C@@H](CC(C)C)NC1=N/C(=C\c2ccc3[nH]ncc3c2)C(=O)N1C`: the figures for the IC50 in experiment [1], in experiment [2] and in experiment [4] were 196 nM, 134 nM and 166 nM, respectively.
Take `COC[C@@H](CC(C)C)NC1=N/C(=C\c2ccc3nn(C)cc3c2)C(=O)N1C`: the values for the IC50 in experiment [3] and in [4] were 258 nM and 153 nM, respectively.
Regarding `COC[C@@H](CC(C)C)NC1=N/C(=C\c2ccc3[nH]cnc3c2)C(=O)N1C`, the values for the IC50 in [1] and in [4] were 112 nM and 2.1 nM, respectively.
`COC[C@@H](CC(C)C)NC1=N/C(=C\c2ccc3c(c2)ncn3C)C(=O)N1`: the IC50 in experiment [1], in experiment [2], in experiment [3] and in experiment [4] was > 10000 nM in each case.
As to `COC[C@@H](CC(C)C)NC1=N/C(=C\c2ccc3c(ccn3C)c2)C(=O)N1`, the IC50 in [2] is 8170 nM; in experiment [3], > 10000 nM; in experiment [4], > 10000 nM.
`O=C1NC(Nc2ccccc2)=N/C1=C\c1ccc2c(c1)OCO2`: the IC50 was 1544 nM in experiment [5]; 507 nM in experiment [6]; 10 nM in [4]; > 10000 nM on Casein kinase I; 5840 nM in experiment [7].
`COC[C@@H](CC(C)C)NC1=N/C(=C\c2ccc3c(c2)ncn3C)C(=O)N1C`: the IC50 in experiment [1], in experiment [2], in experiment [3] and in experiment [4] was > 10000 nM throughout.
Compound `COC[C@@H](CC(C)C)NC1=N/C(=C\c2ccc3nnsc3c2)C(=O)N1` returned an IC50 in experiment [4] of 268 nM.
For the compound `COC[C@@H](CC(C)C)NC1=N/C(=C\c2ccc3nn(C)cc3c2)C(=O)N1`, the IC50 in experiment [2] is 78.3 nM; in [3], 191 nM.
For `COC[C@@H](CC(C)C)NC1=N/C(=C\c2ccc3scnc3c2)C(=O)N1C`, the IC50 in experiment [1], in [2], in [3] and in [4] was > 10000 nM throughout.
As to `COC[C@@H](CC(C)C)NC1=N/C(=C\c2ccc3c(cnn3C)c2)C(=O)N1`, the IC50 worked out at 358 nM in experiment [2] and 189 nM in experiment [4].
With `COC[C@@H](CC(C)C)NC1=N/C(=C\c2ccc3c(c2)CCO3)C(=O)N1`, the IC50 worked out at 11.6 nM in experiment [1], 71.6 nM in experiment [2], 56.7 nM in experiment [3] and 14 nM in experiment [4].
As for `COC[C@@H](CC(C)C)NC1=N/C(=C\c2ccc3c(cnn3C)c2)C(=O)N1C`, the IC50 came out at 399 nM in [1] and 408 nM in experiment [3].
Consider `COC[C@@H](CC(C)C)NC1=N/C(=C\c2ccc3[nH]cnc3c2)C(=O)N1`, for which the IC50 came out at 76.6 nM in experiment [1], 1080 nM in [2], 104 nM in experiment [3] and 41.2 nM in [4].
On the same counts, the results for `COC[C@@H](CC(C)C)NC1=N/C(=C\c2ccc3c(ccn3C)c2)C(=O)N1C` are > 10000 nM, > 10000 nM, > 10000 nM and > 10000 nM.
On to `COC[C@@H](CC(C)C)NC1=N/C(=C\c2ccc3c(c2)OCO3)C(=O)N1`, for which the IC50 turned out to be 5 nM in experiment [1], 23 nM in experiment [2], 1 nM in experiment [3] and 13.5 nM in experiment [4].
For the compound `CCN1C(=O)/C(=C/c2ccc3ncsc3c2)N=C1N[C@@H](COC)CC(C)C`, the IC50 in experiment [5] is 7867 nM; in experiment [6], 2560 nM; in experiment [3] it was 200 nM; in experiment [4], 58.5 nM; on Casein kinase I, > 10000 nM; in [8], > 10000 nM. For the same compound, the IC50 in [7] is 1360 nM; in experiment [9] it was 165 nM.
With `COC[C@@H](CC(C)C)NC1=N/C(=C\c2ccc3[nH]ccc3c2)C(=O)N1C`, the IC50 in [1] was 3930 nM; in [4], > 10000 nM.
Consider `COC[C@@H](CC(C)C)NC1=N/C(=C\c2ccc3[nH]ccc3c2)C(=O)N1`, for which the IC50 in [1] is 4790 nM; in [2], > 10000 nM; in experiment [4], > 10000 nM.
In the case of `COC[C@@H](CC(C)C)NC1=N/C(=C\c2ccc3nc(C)sc3c2)C(=O)N1`, in experiment [4], 52.7 nM corresponded to half-maximal inhibition (IC50). This counts as double-digit nanomolar.
On to `COC[C@@H](CC(C)C)NC1=N/C(=C\c2ccc3ncoc3c2)C(=O)N1`, for which the IC50 in experiment [3] worked out at 14.2 nM.
Regarding `COC[C@@H](CC(C)C)NC1=N/C(=C\c2ccc3c(c2)CCO3)C(=O)N1C`, the figures for the IC50 in [1], in [2] and in experiment [4] were 488 nM, 170 nM and 578 nM, respectively.
On to `COC[C@@H](CC(C)C)NC1=N/C(=C\c2ccc3ncsc3c2)C(=O)N1C`, for which the half-maximal inhibitory concentration (IC50) in experiment [2] is 9.6 nM and 16.6 nM; in [5], 4481 nM; in experiment [6], 525 nM; in experiment [4], 11.6 nM and 12.4 nM; at Casein kinase I, > 10000 nM; in experiment [8], > 10000 nM.
Consider `COC[C@@H](CC(C)C)NC1=N/C(=C\c2ccc3nnsc3c2)C(=O)N1C`, for which the 50% inhibitory concentration (IC50) worked out at 950 nM in experiment [1], 751 nM in experiment [2], 734 nM in experiment [3] and 861 nM in [4].
`COC[C@@H](CC(C)C)NC1=N/C(=C\c2ccc3nc(C)sc3c2)C(=O)N1C`: the IC50 in experiment [1] was 511 nM; in experiment [3], 496 nM; in experiment [4] it was 673 nM.
Regarding `CN1C(=O)/C(=C/c2ccc3c(c2)OCO3)N=C1N` [LEUCETTAMINE B], the IC50 (in experiment [5]; at Casein kinase I) was > 10000 nM in each case.
Consider `COC[C@@H](CC(C)C)NC1=N/C(=C\c2ccc3[nH]ncc3c2)C(=O)N1`, for which the IC50 in [2] came out at 115 nM; in [3], 310 nM; in experiment [4] it was 245 nM.
`COC[C@@H](CC(C)C)NC1=N/C(=C\c2ccc3ncn(C)c3c2)C(=O)N1`: the IC50 is 78.7 nM in [1], 38.2 nM in experiment [3] and 11.7 nM in experiment [4].

In general, IC50 refers to the concentration needed to halve the response being measured. A high value points to lower potency.

The record behind these values is ChEMBL document CHEMBL5375979, “Chemical, Biochemical, Cellular, and Physiological Characterization of Leucettinib-21, a Down Syndrome and Alzheimer's Disease Drug Candidate” (J Med Chem, 2023).
